# From patent publication US12365698B2, “Application of boron dipyrromethene derivatives in anti-tumor and anti-bacterial therapy” (biolitec Unternehmensbeteiligungs III AG, priority 2019, dated 2025)
# What was measured:
# [1] = tested on: Staphylococcus aureus DSM 11729; experiment: Antibacterial testing (CFU/ml count, with and without white light); format: cell-based; conditions: for antibacterial activity in the presence of complex media (serum addition): PBS supplemented with 10% horse blood serum; for antibacterial activity in the presence of complex media (serum addition) / antibacterial activity of compounds which carry just one bromine atom: bacterium not given; for antibacterial activity against S. aureus in the absence of light: highest tested concentration of 100 μmol
# Procedure: The organisms studied were Staphylococcus aureus DSM 11729, Gram-positive and Pseudomonas aeruginosa DSM 1117, Gram-negative.
# Cultures cells are suspended in sterile phosphate-buffered saline (PBS) or sterile PBS supplemented with 10% sterile horse blood serum. The bacterial suspensions are placed into sterile black well plates with clear bottoms. Concentrations of photosensitizer used in the study were as follows: 100 μM, 10 μM and 1 μM.
# After an incubation time period of 30 minutes, the samples are exposed to white light, with a power density and irradiation time resulting in an energy fluency of about 100 J/cm^2. Control plates contained no photosensitizer and are not exposed to laser light. The control samples for dark toxicity are only exposed to photosensitizer without any illumination.
# After irradiation, the samples are removed and suspended again in the culture media. The numbers of colony-forming units (CFU/ml) are enumerated after an adequate incubation time period.
# [2] = tested on: HT29 tumor cell line and other cell lines; experiment: Cell tests: dark toxicity and phototoxicity, XTT cell viability assay; format: cell-based, human, mouse; conditions: cell tests of example 3; 2 or 10 μM
# Procedure: The photosensitizing activity was determined in the following cell lines: • HT29 (human colon adenocarcinoma cell line) • L929 (mouse fibroblast cell line) • A431 (human epidermoid carcinoma cell line) • A253 (submaxillary salivary gland, epidermoid cell line) • CAL-27 (human tongue squamous cell carcinoma cell line) • J774A.1 (Mouse BALB/c monocyte macrophage).
# The cell lines were grown in DMEM (c.c.pro GmbH) supplemented with 10% heat-inactivated fetal calf serum (FCS, c.c.pro GmbH), 1% penicillin (10000 IU) and streptomycin (10000 μg/ml, c.c.pro GmbH). Cells were kept as a monolayer culture in a humidified incubator (5% CO2 in air at 37° C.).
# A photosensitizer stock solution (2 mM) was performed in DMSO and was kept in the dark at 4° C. Further dilution was performed in DMEM medium without phenol red supplemented with 10% FCS to reach a final photosensitizer concentration of 2 or 10 μM, respectively.
# After seeding the cells in micro plates, the cells were incubated with fresh medium (DMEM without phenol red) containing 10% FCS with 2 or 10 μM of the photosensitizer for 24 h before light exposure. […]
# The cell viability was assessed by the XTT assay. […]
# The absorbance of the samples was measured with a microplate reader (infinite 200, Tecan Group Ltd.) at a wavelength of 490 nm.
Molecule,specific activity against bacteria ([1]; compared with toxicity in cells),toxicity in cells [2],antibacterial activity in the presence of complex media (serum addition) [1],antibacterial activity against S. aureus in the absence of light [1],antibacterial activity of compounds which carry just one bromine atom [1]
"1,3,5,7-Tetramethyl-2,6-dibromo-8(4-propargylamino-3-nitrophenyl)-boron dipyrromethene [Example 4.5]",specifically active against bacteria,low toxicity,,,
"1,3,5,7-Tetramethyl-2,6-dibromo-8-(4-N-hydroxy-ethylamino-3-nitrophenyl)-boron dipyrromethene [Example 4.2]",,,antibacterial activity is also observed,high antibacterial activity,
"2-Bromo-8-(4-butyloxy-2,3,5,6-tetrafluorophenyl)-boron dipyrromethene [Example 4.11]",,,,,strong antibacterial activity
"C#CCNc1ccc(C2=C3C=CC=[N+]3[B-](F)(F)n3cc(Br)cc32)cc1[N+](=O)[O-] [Example 4.1, 2-Bromo-8-(4-N-propargylamino-3-nitrophenyl)-boron dipyrromethene]",,,antibacterial activity is also observed,high antibacterial activity,strong antibacterial activity
